One experiment has as its system U2OS. The experiment in a line: Cytotoxicity against human U2OS cells after 96 hrs by MTT assay. The format is functional, cell-based. For orientation: Tetrazolium assays rely on reduction of a dye to a coloured formazan, in cell work by metabolically active cells.
In another experiment the test system is HEK293. The experiment in a line: Cytotoxicity against human HEK293 cells after 96 hrs by MTT assay. The following applies: HEK293, 96 h. The format is cell-based.
The nature of experiment [1]: Up-regulation of transcriptional activity of human CLA-1 promoter region -1055 to -62bp transfected in HepG2 cells by luciferase reporter gene assay. In kind it is cell-based. On the technique in general: A reporter such as luciferase makes a cellular process visible.
The test system of the next experiment is HeLa. The experiment in a line: Cytotoxicity against human HeLa cells after 96 hrs by MTT assay. In kind it is functional, cell-based.
A short description of experiment [2]: Cytotoxicity against human LO2 cells after 96 hrs by MTT assay. In kind it is cell-based. The following applies: L02, 96 h.
For a further experiment, the system named is HepG2. The experiment in a line: Cytotoxicity against human HepG2 cells after 96 hrs by MTT assay. The format is functional, cell-based. The note with it: HepG2, 96 h.

SMILES strings stand for the structures. Some results are limits rather than exact numbers.

The term IC50 denotes the midpoint of a concentration-inhibition curve. Read a high IC50 as weaker potency in that assay. As usually defined, the EC50 is the concentration that produces a half-maximal response.

Consider `CNc1ccc(C(=O)[C@](C)(O)/C=C(C)/C=C/C(N)=O)cc1`, for which the 50% inhibitory concentration (IC50) in the experiment on U2OS was over 200 µM; in the experiment with HEK293 it was over 100 µM; with HeLa, over 200 µM; in experiment [2], over 200 µM; in the experiment with HepG2, over 200 µM. Moreover, the EC50 in experiment [1] was over 100 µM.

In the case of `CNc1ccc(C(=O)[C@](C)(O)/C=C(C)/C=C/C(=O)NO)cc1`, the IC50 was over 200 µM with U2OS; 14.2 µM in the experiment with HEK293; over 200 µM with HeLa; 15.5 µM in experiment [2]; over 200 µM in the experiment on HepG2. The compound further gave a 50% effective concentration (EC50) in experiment [1] of 14.3 µM.

For the compound `CC(/C=C/C(N)=O)=C\[C@@](C)(O)C(=O)c1ccc(N(C)C)cc1`, the IC50 in the experiment with U2OS is over 200 µM; with HEK293 it was over 100 µM; in the experiment with HeLa it was over 200 µM; in experiment [2], over 200 µM; in the experiment with HepG2 it was over 200 µM. Also, the half-maximal effective concentration (EC50) in experiment [1] was over 100 µM.

As to `CC(=C/[C@@H](C)C(=O)c1ccc(N(C)C)cc1)/C=C/C(=O)O`, the IC50 was over 200 µM in the experiment with U2OS; over 100 µM in the experiment with HEK293; over 200 µM in the experiment with HeLa; over 200 µM in experiment [2]; over 200 µM with HepG2. This compound also yielded an EC50 in experiment [1] of over 100 µM.

On to `CC(/C=C/C(N)=O)=C\[C@@H](C)C(=O)c1ccc(N(C)C)cc1`, for which the IC50 is over 200 µM in the experiment with U2OS; 26.2 µM with HEK293; over 200 µM with HeLa; 29.1 µM in experiment [2]; over 200 µM in the experiment with HepG2. Also, the response in experiment [1] was half-maximal at 2.39 µM (EC50).

Turning to `CNC(=O)/C=C/C(C)=C/[C@@H](C)C(=O)c1ccc(N(C)C)cc1`, the concentration for half-maximal inhibition (IC50) is over 200 µM in the experiment with U2OS; 8.14 µM in the experiment on HEK293; over 200 µM in the experiment with HeLa; 23.9 µM in experiment [2]; over 200 µM with HepG2. Besides, in experiment [1], the EC50 came to 78.8 µM.

On to `CC(/C=C/C(=O)NO[C@H]1O[C@H](CO)[C@@H](O)[C@H](O)[C@H]1O)=C\[C@@H](C)C(=O)c1ccc(N(C)C)cc1`, for which the 50% inhibitory concentration (IC50) in the experiment on U2OS was over 200 µM; with HEK293 it was over 100 µM; with HeLa, over 200 µM; in experiment [2] it was over 200 µM; in the experiment with HepG2, over 200 µM. This compound came in with an EC50 in experiment [1] of 48.2 µM.

`CC(/C=C/C(=O)NO[C@@H]1O[C@H](CO)[C@@H](O)[C@H](O)[C@H]1O)=C\[C@@H](C)C(=O)c1ccc(N(C)C)cc1`: the half-maximal inhibitory concentration (IC50) was over 200 µM in the experiment with U2OS; over 100 µM in the experiment on HEK293; over 200 µM in the experiment on HeLa; over 200 µM in experiment [2]; over 200 µM in the experiment on HepG2. In experiment [1], this compound had an EC50 of 46 µM.

For the compound `CC(/C=C/C(=O)O)=C\[C@@H](C)C(=O)c1ccc(N(C)C)cc1` [TRICHOSTATIC ACID], the half-maximal inhibitory concentration (IC50) in the experiment on U2OS is over 200 µM; in the experiment on HEK293 it was 86.6 µM; in the experiment on HeLa, over 200 µM; in experiment [2], 89.2 µM; in the experiment with HepG2, over 200 µM. Also, the EC50 in experiment [1] is over 100 µM.

Take `CC(/C=C/C(=O)NO)=C\[C@@H](C)C(=O)c1ccc(N(C)C)cc1` [TRICHOSTATIN]: the 50% inhibitory concentration (IC50) worked out at 14.9 µM with U2OS; 0.16 µM in the experiment on HEK293; 0.85 µM in the experiment on HeLa; 0.21 µM in experiment [2]; 0.96 µM with HepG2. This compound came in with an EC50 in experiment [1] of 0.38 µM.

Values taken from ChEMBL document CHEMBL3351706, “Identification of trichostatin derivatives from Streptomyces sp. CPCC 203909” (Bioorg Med Chem Lett, 2015).
